Test [1] deals with T1, ER α-glucosidase II (Rattus norvegicus, UniProt A0A8I6GFL3).
T1 construct: ER α-glucosidase II was prepared from the rat liver; from tissue; host or cells: rat liver
Put plainly: ER α-glucosidase II inhibition assay, enzyme prepared from rat liver, 4-nitrophenyl-α-D-glucopyranoside substrate. The class given is biochemical. The note with it: for IC50: rat liver enzyme, pH 6.8, 37 °C 30 min, read-out: IC50 ER α-Glcase II. Here is the method:
(§1) The inhibitory activity toward lysosomal acid α-glucosidase (GAA) was measured with Myozyme (Genzyme; Boston, MA, USA) as the enzyme source, and 4-methylumbelliferyl-α-D-glucopyranoside (Sigma-Aldrich Co.; St. Louis, Mo, USA) as substrate. The reaction mixture consisted 100 mM McIlvaine buffer (pH 6.8), 0.25% sodium taurocholate and 0.1% Triton X-100 (Nacalai Tesque Inc.; Kyoto, Japan), and the appropriate amount of enzyme. The reaction mixture was pre-incubated at 0 °C for 45 min, and the reaction was started by the using 4 mM substrate solution, followed by incubation at 37 °C for 30 min. The reaction was stopped by the addition of 1.6 mL of the solution of 400 mM Glycine-NaOH solution (pH 10.6). The released 4-methylumbelliferone was measured (excitation 362 nm, emission 450 nm) with a F-4500 fluorescence spectrophotometer (Hitachi, Tokyo, Japan). ER α-glucosidase II was prepared from the rat liver according to the method of Hino et al.. For ER α-glucosidase II activities, 4-nitrophenyl-α-D-glucopyranoside (Sigma-Aldrich Co.; St. Louis, MO, USA) was used as substrate. The reaction mixture contained phosphate buffer (pH 6.8), 0.25% sodium taurocholate, and the appropriate amount of enzyme. The reaction mixture was pre-incubated at 0 °C for 30 min, and the reaction was started by the using 4 mM substrate solution, followed by incubation at 37 °C for 30 min. The reaction was stopped by adding 0.4 mL of 400 mM Na2CO3. The released p-nitrophenol was measured spectrometrically at 400 nm.

The target of test [2] is T2, lysosomal acid α-glucosidase (GAA) (Homo sapiens, UniProt P10253).
T2 construct: purchased Genzyme
In words: Lysosomal acid α-glucosidase (GAA) inhibition assay, Myozyme as enzyme source, 4-methylumbelliferyl-α-D-glucopyranoside substrate. The note with it: for IC50: Myozyme, pH 6.8, 37 °C 30 min; for Selectivity Index ER α-Glcase II/GAA: ratio of IC50 ER α-glucosidase II / IC50 GAA. The class given is biochemical. Here is the method: as §1

In test [3] the target is lysosomal α-galactosidase A. Further details: method as in PMID 15771446. The note with it: Figure 1; cited from earlier work.
Test [4] concerns the target Jack bean α-mannosidase. Details: method as in PMID 15771446. Particulars: Figure 1; cited from earlier work.
In test [5] the target is T2, lysosomal acid α-glucosidase (GAA). Put plainly: In vitro thermostability of GAA at 47 °C, remaining enzyme activity. The class given is biochemical. Particulars: 10 µM compound, pH 6.8, incubation 60 min. Here is the method:
GAA was incubated in 100 mM McIlvaine buffer (pH 6.8) containing 0.25% sodium taurocholate and 0.1% Triton X-100 for 0, 20, 40, and 60 min, and the remaining enzyme activity was determined with 4-methylumbelliferl-α-D-glucopyranoside as substrate. The enzyme activity was 83% lost within 60 min under incubation without test samples, while the incubation with α-1-C-heptyl-LAB effectively stabilized GAA. The enzyme activity remained over 94% even under the incubation for 60 min in the presence of 10 µM α-1-C-heptyl-LAB (Figure 8). […] In contrast, 10 µM α-1-C-ethyl-LAB could not sufficiently protect the enzyme activity (50% activity remained at 60 min).
GAA was incubated at 47 °C in 100 mM sodium citrate buffer (pH 6.8) containing 1 mg/mL of bovine serum albumin (BSA) at various incubation times with or without iminosugars. Each value represents the mean ± SEM (n = 3).
The enzyme GAA was incubated at 47 °C in 100 mM McIlvaine buffer (pH 6.8) containing 0.25% sodium taurocholate and 0.1% Triton X-100 for 0, 20, 40, and 60 min. After incubation, the remaining GAA activity was assayed immediately using 4 mM 4-methylumbelliferyl-α-D-glucopyranoside as substrate.

SMILES strings stand for the structures.

T1 sequence (A0A8I6GFL3 33-944): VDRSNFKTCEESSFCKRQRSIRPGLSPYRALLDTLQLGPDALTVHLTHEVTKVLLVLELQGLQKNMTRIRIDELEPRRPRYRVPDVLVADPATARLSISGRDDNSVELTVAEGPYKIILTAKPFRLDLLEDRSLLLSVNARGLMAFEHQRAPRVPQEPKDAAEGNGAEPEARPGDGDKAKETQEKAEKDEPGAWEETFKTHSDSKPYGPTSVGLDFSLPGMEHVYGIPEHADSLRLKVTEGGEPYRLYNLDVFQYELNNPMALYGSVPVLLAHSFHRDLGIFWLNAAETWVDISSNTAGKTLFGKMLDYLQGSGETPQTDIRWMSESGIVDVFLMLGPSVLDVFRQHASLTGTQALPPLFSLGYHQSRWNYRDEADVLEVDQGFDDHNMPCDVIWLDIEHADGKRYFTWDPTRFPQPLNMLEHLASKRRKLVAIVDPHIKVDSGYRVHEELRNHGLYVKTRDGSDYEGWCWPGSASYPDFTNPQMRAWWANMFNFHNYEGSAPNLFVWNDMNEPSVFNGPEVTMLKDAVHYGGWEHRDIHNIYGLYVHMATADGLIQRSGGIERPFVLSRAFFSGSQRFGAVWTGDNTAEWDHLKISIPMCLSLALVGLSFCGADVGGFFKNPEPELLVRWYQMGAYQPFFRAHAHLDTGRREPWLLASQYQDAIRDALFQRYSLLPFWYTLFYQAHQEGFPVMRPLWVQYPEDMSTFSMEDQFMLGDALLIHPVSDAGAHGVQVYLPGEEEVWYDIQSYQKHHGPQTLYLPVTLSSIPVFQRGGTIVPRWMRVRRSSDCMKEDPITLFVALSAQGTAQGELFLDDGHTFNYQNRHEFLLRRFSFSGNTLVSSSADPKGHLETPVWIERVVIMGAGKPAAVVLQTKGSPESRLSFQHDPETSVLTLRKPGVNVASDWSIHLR

`CCC[C@@H]1N[C@@H](CO)[C@H](O)[C@H]1O` [α-1-C-Propyl-LAB]: the half-inhibitory concentration (IC50) (commonly the concentration needed to halve the response being measured) in test [1] is 413 ± 50 µM. Further, in test [2], the IC50 was determined as 7.4 ± 0.31 µM and the “Selectivity Index ER α-Glcase II/GAA” value came to 55.8.
With `OC[C@H]1NC[C@H](O)[C@@H](O)[C@H]1O` [DGJ, 1,5-dideoxy-1,5-imino-D-galactitol], the IC50 in test [3] was 0.07 µM.
With `OC[C@H]1NC[C@H](O)[C@@H](O)[C@@H]1O` [DNJ, 1,5-Dideoxy-1,5-imino-D-glucitol, reference compound], in test [1], the IC50 was 8 ± 0.55 µM.
In the case of `OC[C@H]1NC[C@@H](O)[C@@H](O)[C@@H]1O` [DMJ, 1,5-dideoxy-1,5-imino-D-mannitol], in test [4], the IC50 is 774 µM.
Regarding `C[C@@H]1N[C@@H](CO)[C@H](O)[C@H]1O` [α-1-C-Methyl-LAB], the IC50 in test [1] is 26 ± 2 µM. Also, in test [2], the IC50 is 2 ± 0.12 µM and the “Selectivity Index ER α-Glcase II/GAA” value is reported as 13.0.
Turning to `OC[C@@H]1NC[C@H](O)[C@H]1O` [LAB, 1,4-Dideoxy-1,4-imino-L-arabinitol], the IC50 in test [1] came out at 2.8 ± 0.22 µM. Also, in test [2] (relative to DNJ), the “Inhibition potency of GAA, times weaker than DNJ” value came out at 3.5 times. In test [5], the “GAA enzyme activity remained” value is on record as 89%.
In the case of `CCCCC[C@@H]1N[C@@H](CO)[C@H](O)[C@H]1O` [α-1-C-Pentyl-LAB], the IC50 in test [1] was determined as 180 ± 19 µM. Further, in test [2], half-maximal inhibition (IC50) was put at 1.1 ± 0.088 µM and the “Selectivity Index ER α-Glcase II/GAA” value is 163.6.
Take `CCCC[C@@H]1N[C@@H](CO)[C@H](O)[C@H]1O` [α-1-C-Butyl-LAB]: the concentration for half-maximal inhibition (IC50) in test [1] came to 228 ± 13 µM. For the same compound, in test [2], the midpoint of inhibition, the IC50, lay at 1.6 ± 0.04 µM and the “Selectivity Index ER α-Glcase II/GAA” value was 142.5.
Take `CC[C@@H]1N[C@@H](CO)[C@H](O)[C@H]1O` [α-1-C-Ethyl-LAB]: the IC50 in test [1] came to 541 ± 26 µM. Also, the “Inhibition of ER α-glucosidase II, fold weaker than LAB” value in test [1] (relative to LAB) stood at 193 fold. Also, in test [2], the IC50 amounted to 11 ± 1.1 µM and the “Selectivity Index ER α-Glcase II/GAA” value came out at 49.2. Moreover, the “Inhibition of GAA, fold lower than LAB” value in test [2] (relative to LAB) is on record as 21 fold. In test [5], the “GAA enzyme activity remained” value was found to be 50%.
Consider `CCCCCCC[C@@H]1N[C@@H](CO)[C@H](O)[C@H]1O` [α-1-C-Heptyl-LAB, α-1-C-heptyl-1,4-dideoxy-1,4-imino-L-arabinitol], for which the IC50 in test [1] came out at 74 ± 3.7 µM; in test [2], 0.44 ± 0.044 µM. Moreover, in test [2], the “Selectivity Index ER α-Glcase II/GAA” value is 168.2. In test [2] (relative to LAB), the “Selectivity index, fold better relative to the parent LAB” value turned out to be 31 fold. Besides, in test [5], the “GAA enzyme activity remained” value was “over 94%”.
In the case of `CCCCCC[C@@H]1N[C@@H](CO)[C@H](O)[C@H]1O` [α-1-C-Hexyl-LAB], the half-maximal inhibitory concentration (IC50) in test [1] is 100 ± 6.2 µM; in test [2] it was 0.71 ± 0.029 µM. Besides, in test [2], the “Selectivity Index ER α-Glcase II/GAA” value is given as 140.8.

The values are drawn from paper PMC7357040, “Strategy for Designing Selective Lysosomal Acid α-Glucosidase Inhibitors: Binding Orientation and Influence on Selectivity” (Molecules, 2020).
